Experimental data as given in article PMC9727179, “Acorane sesquiterpenes from the deep-sea derived Penicillium bilaiae fungus with anti-neuroinflammatory effects” (Frontiers in Chemistry, 2022).
Entries after “also recorded” stand apart in the source; their conditions may differ. Where two headings read alike, the source gives them in different places.

Experiments:
[1] = system: NO production in LPS-induced BV-2 cells; experiment: Inhibition of NO production in LPS-induced BV-2 cells (Griess method); format: cell-based, murine; conditions: for IC50: LPS (1 μg/ml)-induced BV-2 cells, 24 h, read-out: IC50, inhibitory effect against NO production
Procedure: In the presence or absence of LPS (1 μg/ml), murine BV-2 microglial cells were treated with compounds with different concentrations for 24 h. The same volume of Griess reagent was added to the supernatant of culture media. The Griess method was used to determine the NO levels under the absorbance at 540 nm measured using a microplate spectrophotometer (Thermo Scientifics, United States). Based on the established calibration curve of standard sodium nitrite solutions, the content of nitrite was calculated.

[2] = Cell viability / cytotoxicity, MTT method; format: cell-based, murine; conditions: mouse, BV-2 microglial cells, BV-2 cells
Procedure: (§1) Murine BV-2 microglial cells were obtained from the Cell Culture Center of Institute of Basic Medical Sciences, Chinese Academy of Medical Sciences, and the cells were cultured in Dulbecco’s modified Eagle’s medium (Gibco) together with 10% (v/v) fetal bovine serum (HyClone) within a 5% CO2 incubator at 37°C. The MTT method was utilized to detect the cytotoxicity of the compound to read the absorbance at 570 nm using a microplate spectrophotometer (Thermo Scientifics, United States).

BV-2 microglial cells = experiment: Cell viability / cytotoxicity, MTT method; format: cell-based, murine; conditions: BV-2 cells
Procedure: as §1

iNOS [3] = experiment: Western blot of iNOS protein expression in LPS-induced BV-2 cells; format: cell-based, murine; conditions: LPS (1 μg/mL)-induced BV-2 cells, different concentrations, 24 h
Procedure: (§2) In 12-well plates, BV-2 cells were seeded to incubate with LPS (1 μg/ml) for 1 h. Each compound was incubated with BV-2 cells for 16 h. Phenylmethylsulfonyl fluoride-protease inhibitor cocktail as the cell extraction buffer was used to lyse cells. Nuclear and cytosolic extraction kits were applied for the collection of the cytosolic and nuclear extracts. Upon SDS-PAGE, proteins were purified and transferred to PVDF membranes (Millipore). After treatment with 5% (W/V) skim milk in TBST (Tris-buffered saline with 0.1% Tween 20) for 1 h, the membranes were maintained at 4°C overnight. The membrane was washed and then incubated with a secondary antibody at 20°C for 1 h. The target proteins were visualized under a chemiluminescence (ECL) detection system, and the relative optical densities were analyzed by Image Master™ 2D Elite software.
(§3) FIGURE 6 Analog 18 inhibited the expression of iNOS and COX-2 in LPS-induced BV-2 cells. Cells were stimulated by 1 μg/mL LPS with or without 18 for 24 h. (A) The protein expressions o f iNOS treated by different concentrations of 18 were determined by Western blot assay, (B) the expressions of COX-2 t reated by different concentrations of 18 were determined by Western blot assay. […]

COX-2 [4] = experiment: Western blot of COX-2 protein expression in LPS-induced BV-2 cells; format: cell-based, murine; conditions: LPS (1 μg/mL)-induced BV-2 cells, different concentrations, 24 h
Procedure: as §2, §3

[5] = system: phosphorylation of JNK, ERK and p38 (MAPK signaling pathway); experiment: MAPK phosphorylation in LPS-stimulated BV-2 cells; format: cell-based, murine; conditions: LPS-stimulated BV-2 microglial cells
Procedure: as §2

NF-κB p65 = experiment: Nuclear translocation of NF-κB p65 in LPS-stimulated BV-2 cells (immunofluorescence and Western blot); format: cell-based, murine; conditions: LPS (1 μg/ml)-stimulated BV-2 cells, 2 μM, 3 h, immunofluorescence and WB
Procedure: as §2
Prior to LPS induction, BV-2 cells were pretreated by the compound (2 μM) in DMSO. Cells were seeded in glass coverslips, which were then treated with cold 4% paraformaldehyde and 0.2% Triton X-100 (in PBS). […] Images were detected using a fluorescence microscope (OLYMPUS IX83).
FIGURE 8 Effect of analog 18 on the nuclear translocation of NF-κB p65 in LPS-stimulated BV-2 cells. […] (B) BV-2 cells were stimulated with LPS (1 μg/ml) in the absence or presence of 18 (2 μM) for 3 h, and NF-kB p65 levels in the nucleus and cytoplasm were determined by Western blot. […]

iNOS [6] = experiment: iNOS mRNA level; format: cell-based
COX-2 [7] = experiment: COX-2 mRNA level; format: cell-based

IC50 ([1]; Mus musculus, BV-2, 24 h)	Compound	CC50 [2]	also measured
> 10 µM	CC1=CCC23CC1OC(C)(CO)C2C(O)CC3C (centres unmarked) [Compound 1, Bilaiaeacorenol A]	> 100 µM	
6.1 ± 2.3 µM	CC1CC(O)C2C(C)(O)CC3CC12CC=C3CO (centres unmarked) [Compound 2, Bilaiaeacorenol B]	> 100 µM	melting point: 108 to 110 °C
5.3 ± 1.1 µM	CC1=CCC2(CC1O)C(C)CC(O)C2C(C)(O)CO (centres unmarked) [Compound 3, Bilaiaeacorenol C]	> 100 µM	
7.6 ± 1.2 µM	CC1=CCC2(CC1O)C(C)CC(O)C2C(C)CO (centres unmarked) [Compound 4, Bilaiaeacorenol D]	> 100 µM	
> 10 µM	C=C(C)C1C(O)CC(C)C12CC=C(C)C(O)C2 (centres unmarked) [Compound 5, Bilaiaeacorenol E]	> 100 µM	
	C=C(C)C1C(O)CC(C)C12CC=C(C)C(O)C2 (centres unmarked) [Compound 6, Bilaiaeacorenol F]		IC50 [1]: > 10 µM; CC50 (BV-2 microglial cells): > 100 µM
> 10 µM	C=C(C)C1C(O)CC(C)C12CC=C(CO)C(O)C2 (centres unmarked) [Compound 7, Bilaiaeacorenol G]	> 100 µM	
> 10 µM	C=C(C)C1C(O)CC(C)C12CC(O)C(C)=CC2O (centres unmarked) [Compound 8, Bilaiaeacorenol H]	> 100 µM	
	C=C(C)C1C(OC(C)=O)CC(C)C12CC(O)C(C)=CC2O (centres unmarked) [Compound 9, Bilaiaeacorenol I]	> 100 µM	IC50 ([1]; Mus musculus): 3.5 ± 0.1 µM
> 10 µM	C=C(CO)C1C(OC(C)=O)CC(C)C12CC=C(C)C(O)C2 (centres unmarked) [Compound 10, Bilaiaeacorenol J]	> 100 µM	
8.7 ± 2.1 µM	C=C(C)C1C(O)CC(C)C12C=CC(C)(O)C(O)C2 (centres unmarked) [Compound 11, Bilaiaeacorenol K]	> 100 µM	
0.53 ± 0.47 µM	C=C(C)C1C(OC(C)=O)CC(C)C12CCC(CO)C(O)C2 (centres unmarked) [Compound 13, Bilaiaeacorenol M]	> 100 µM	
	C=C(C)C1C(O)CC(C)C12CCC(CO)C(O)C2 (centres unmarked) [Compound 14, Bilaiaeacorenol N]		IC50 ([1]; Mus musculus): > 10 µM; CC50 (BV-2 microglial cells): > 100 µM
	C=C(C)C1C(OC(C)=O)CC(C)C12CC(O)C(C)(O)C(O)C2 (centres unmarked) [Compound 15, Bilaiaeacorenol O]	> 100 µM	IC50 ([1]; Mus musculus): 3.7 ± 0.1 µM
	C=C(C)C1C(O)CC(C)C12CCC(CO)C(O)C2 (centres unmarked) [Compound 16, Bilaiaeacorenol P]		IC50 [1]: 7.5 ± 0.2 µM; CC50 (BV-2 microglial cells): > 100 µM
> 10 µM	C=C(C)C1C(O)CC(C)C12CC(=O)C(C)C(O)C2 (centres unmarked) [Compound 17, Bilaiaeacorenol Q]	> 100 µM	
0.5 ± 1.2 µM	C=C(C)C1C(O)CC(C)C12CCC(C(=O)O)C(O)C2 (centres unmarked) [Compound 18, Bilaiaeacorenol R]	> 100 µM	reduction against NO production ([1]; LPS-induced BV-2 cells, dose-dependent manner): efficient reduction; iNOS level (protein) (iNOS [3]): decreased; COX-2 level (protein) (COX-2 [4]): decreased; phosphorylation of JNK, ERK and p38 [5]: slightly affected; also recorded: Ineffective; p65 level in the nucleus (NF-κB p65): significantly downregulated; iNOS mRNA level (iNOS [6]): marked reductions; COX-2 mRNA level (COX-2 [7]): marked reductions
6.8 ± 4.2 µM	[H]/N=C(/NC)NCCC[C@H](N)C(=O)O [L-NMMA, NG-monomethyl-L-arginine, reference compound]	> 100 µM	
	adametacorenol A [Compound 19]		IC50 [1]: > 10 µM; CC50 (BV-2 microglial cells): > 100 µM
	adametacorenol B [Compound 20]		IC50 [1]: > 10 µM; CC50 (BV-2 microglial cells): > 100 µM

Compound	IC50 ([1]; Mus musculus, BV-2, 24 h)	CC50 [2]	also measured
C=C(C)C1C(O)CC(C)C12CCC(CO)C(O)C2 (centres unmarked) [Compound 12, Bilaiaeacorenol L]	> 10 µM	> 100 µM	
